Consider 14 compounds from ChEMBL document CHEMBL5346893, “1,2,4-Amino-triazine derivatives as pyruvate dehydrogenase kinase inhibitors: Synthesis and pharmacological evaluation” (Eur J Med Chem, 2023).

The subject of test [1] is BXPC-3. The experiment in a line: Antiproliferative activity against human BXPC-3 cells expressing wild type KRAS cultured as 3D spheroids assessed as inhibition of cell growth measured after 72 hrs by MTT assay. It is filed as functional, cell-based. Conditions: BXPC-3, 72 h.
Test [2] relates to BXPC-3. The experiment in a line: Antiproliferative activity against human BXPC-3 cells expressing wild type KRAS cultured as 2D spheroids assessed as inhibition of cell growth measured after 72 hrs by MTT assay. As to conditions: BXPC-3, 72 h. It is filed as functional, cell-based.
Test [3] concerns PSN1. The experiment in a line: Antiproliferative activity against human PSN1 cells expressing KRAS mutant cultured as 2D spheroids assessed as inhibition of cell growth measured after 72 hrs by MTT assay. It counts as functional, cell-based. As to conditions: PSN1, 72 h.
For test [4], the target named is [Pyruvate dehydrogenase (acetyl-transferring)] kinase isozyme 1, mitochondrial (Homo sapiens, UniProt Q15118). The experiment in a line: Inhibition of PDK1 (unknown origin) at 1.5 uM incubated for 30 mins followed by substrate addition measured after 60 mins in presence of ATP by ADP-Glo luminescent assay relative to control. Conditions: time 90.0 min, values are per cent of control.

The test system of test [5] is PSN1. The experiment in a line: Antiproliferative activity against human PSN1 cells expressing KRAS mutant cultured as 3D spheroids assessed as inhibition of cell growth measured after 72 hrs by MTT assay. It counts as functional, cell-based. Conditions: PSN1, 72 h.
Test [6] concerns the target [Pyruvate dehydrogenase (acetyl-transferring)] kinase isozyme 2, mitochondrial (Homo sapiens) (UniProt Q15119). As to the kind of experiment: Inhibition of PDK2 (unknown origin) at 1.5 uM incubated for 30 mins followed by substrate addition measured after 60 mins in presence of ATP by ADP-Glo luminescent assay relative to control. As to conditions: time 90.0 min.

Consider `Cn1cc(-c2nnc(N)nc2-c2c[nH]c3ccccc23)c2cccnc21`, for which the concentration for half-maximal inhibition (IC50) in test [1] was determined as 16.1 µM; in test [2], 1.8 µM; in test [3] it was 2.2 µM; in test [5], 20.1 µM. For the same compound, the residual activity in test [4] was 40%. Also, the inhibition in test [6] stood at 100%.

Regarding `Nc1nnc(-c2c[nH]c3ncccc23)c(-c2c[nH]c3ccc(F)cc23)n1`, the IC50 amounted to 19.7 µM in test [1], 2.6 µM in test [2], 3.2 µM in test [3] and 20.1 µM in test [5]. In addition, the residual activity in test [4] is 40%. The inhibition in test [6] stood at 100%.

As to `Cn1cc(-c2nnc(N)nc2-c2c[nH]c3ccccc23)c2cc(Br)cnc21`, the half-inhibitory concentration (IC50) was determined as 34.2 µM in test [1], 3.2 µM in test [2], 4.6 µM in test [3] and 31.8 µM in test [5]. Further, the residual activity in test [4] came to 40%. In addition, the inhibition in test [6] is 100%.

As for `Cn1cc(-c2nc(N)nnc2-c2c[nH]c3ccccc23)c2cccnc21`, the half-maximal inhibitory concentration (IC50) in test [1] stood at 15.5 µM; in test [2], 1.9 µM; in test [3], 2.1 µM; in test [5] it was 13.2 µM. For the same compound, the residual activity in test [4] amounted to 40%. For the same compound, in test [6], the inhibition came to 100%.

As to `COc1ccc2[nH]cc(-c3nnc(N)nc3-c3c[nH]c4ncccc34)c2c1`, the residual activity in test [4] is 40%. The inhibition in test [6] worked out at 100%.

With `Nc1nnc(-c2c[nH]c3ncccc23)c(-c2c[nH]c3ccc(Br)cc23)n1`, the IC50 was 16.4 µM in test [1], 1.8 µM in test [2], 1.6 µM in test [3] and 15.1 µM in test [5]. Moreover, the residual activity in test [4] was 40%. In addition, the inhibition in test [6] worked out at 100%.

Take `COc1ccc2[nH]cc(-c3nnc(N)nc3-c3cn(C)c4ncccc34)c2c1`: the IC50 came out at 10.7 µM in test [1], 1.5 µM in test [2], 2.1 µM in test [3] and 12.2 µM in test [5]. Moreover, the residual activity in test [4] was 40%. Also, in test [6], the inhibition worked out at 100%.

Turning to `Cn1cc(-c2nc(N)nnc2-c2c[nH]c3ccccc23)c2cc(Br)cnc21`, the IC50 in test [1] was 33.6 µM; in test [2], 2.7 µM; in test [3] it was 4.7 µM; in test [5], 31.2 µM. In addition, the residual activity in test [4] worked out at 40%. Also, in test [6], the inhibition was 100%.

For `Nc1nnc(-c2c[nH]c3ccc(F)cc23)c(-c2c[nH]c3ncccc23)n1`, the concentration for half-maximal inhibition (IC50) came to 22.6 µM in test [1], 1.2 µM in test [2], 1.6 µM in test [3] and 22.3 µM in test [5]. In test [4], the residual activity was 40%. Besides, the inhibition in test [6] came out at 100%.

Take `Nc1nnc(-c2c[nH]c3ccc(Br)cc23)c(-c2c[nH]c3ncccc23)n1`: in test [4], the residual activity amounted to 40%. Moreover, the inhibition in test [6] was found to be 100%.

On to `Nc1nnc(-c2c[nH]c3ccc(Br)cc23)c(-c2c[nH]c3ncc(Br)cc23)n1`, for which the IC50 was 54.5 µM in test [1], 1.4 µM in test [2], 1.5 µM in test [3] and 21.6 µM in test [5]. The residual activity in test [4] was 40%. The inhibition in test [6] was determined as 100%.

Consider `COc1ccc2[nH]cc(-c3nc(N)nnc3-c3cn(C)c4ncccc34)c2c1`, for which the IC50 in test [1] was determined as 13.6 µM; in test [2], 1.4 µM; in test [3] it was 2.3 µM; in test [5], 13.6 µM. Moreover, the residual activity in test [4] worked out at 40%. Moreover, the inhibition in test [6] was 100%.

For the compound `O=C(O)C(Cl)Cl` [DICHLOROACETIC ACID], the IC50 in test [1], in test [2], in test [3] and in test [5] was over 1000 µM in each case.

With `COc1ccc2[nH]cc(-c3nnc(N)nc3-c3c[nH]c4ncc(Br)cc34)c2c1`, the IC50 in test [1] stood at 27.5 µM; in test [2], 3.2 µM; in test [3], 3.4 µM; in test [5], 22.1 µM. Further, the residual activity in test [4] was 40%. Moreover, the inhibition in test [6] came out at 100%.
